From ChEMBL document CHEMBL1201862, “PubChem BioAssay data set” (2004)
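Values below derive from 48-hour exposures of cells grown in 96-well plates, with endpoints linearly interpolated between the two concentrations bracketing the appropriate inhibition level. The concentration for 50% growth inhibition is given as GI50.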 Calls of active or inactive are those of the source. No stated cut-off is given here; in the data, active = GI50 up to about 1.1 µM and inactive = higher.

What was measured:
Experiment in all cases: inhibition of tumour cell growth, NCI panel, 48 h
Hs-578T = test system: Hs-578T
UO-31 = test system: UO-31
HOP-62 = test system: HOP-62
UACC-257 = test system: UACC-257
OVCAR-5 = test system: OVCAR-5
SNB-19 = test system: SNB-19
LOX IMVI = test system: LOX IMVI
SF-539 = test system: SF-539
T47D = test system: T47D
UACC-62 = test system: UACC-62
BT-549 = test system: BT-549
OVCAR-4 = test system: OVCAR-4
HT-29 = test system: HT-29
A498 = test system: A498
EKVX = test system: EKVX
U-251 = test system: U-251
PC-3 = test system: PC-3
SK-MEL-28 = test system: SK-MEL-28
NCI-H23 = test system: NCI-H23
NCI-H522 = test system: NCI-H522

Measured: GI50

O=C(Cc1ccc(OCc2cccc(Cl)c2)cc1)NO
inactive: Hs-578T 30 µM | UO-31 12.8 µM | HOP-62 24.6 µM | UACC-257 53.5 µM | OVCAR-5 30.3 µM | SNB-19 37.2 µM | LOX IMVI 11.7 µM | SF-539 29.6 µM | T47D 5.74 µM | UACC-62 18.7 µM | BT-549 26.2 µM | OVCAR-4 15.3 µM | HT-29 27 µM | A498 2.7 µM | EKVX 25.3 µM | U-251 28.9 µM | PC-3 9.18 µM | SK-MEL-28 32.9 µM | NCI-H23 34 µM | NCI-H522 15.8 µM

Nc1nc(=O)c2c([nH]1)NCC(CCNc1ccc(C(=O)O)cc1)N2 (centres undefined)
inactive: Hs-578T > 100 µM | UO-31 > 100 µM | HOP-62 > 100 µM | UACC-257 > 100 µM | OVCAR-5 > 100 µM | SNB-19 > 100 µM | LOX IMVI > 100 µM | SF-539 > 100 µM | T47D > 100 µM | UACC-62 > 100 µM | BT-549 > 100 µM | OVCAR-4 > 100 µM | HT-29 > 100 µM | A498 > 100 µM | EKVX > 100 µM | U-251 > 100 µM | PC-3 > 100 µM | SK-MEL-28 > 100 µM | NCI-H23 > 100 µM | NCI-H522 > 100 µM

CC(/C=N/N(C)C1=NCCCN1)=N/N(C)C1=NCCCN1
inactive: Hs-578T > 100 µM | UO-31 > 100 µM | HOP-62 > 100 µM | UACC-257 > 100 µM | OVCAR-5 > 100 µM | SNB-19 > 100 µM | LOX IMVI > 100 µM | SF-539 > 100 µM | T47D > 100 µM | UACC-62 > 100 µM | BT-549 > 100 µM | OVCAR-4 > 100 µM | HT-29 > 100 µM | A498 > 100 µM | EKVX > 100 µM | U-251 > 100 µM | PC-3 > 100 µM | SK-MEL-28 > 100 µM | NCI-H23 > 100 µM | NCI-H522 > 100 µM

C(=N\N=C1NCCN1)/c1ccc2ccccc2c1
inactive: Hs-578T 19.5 µM | UO-31 3.67 µM | HOP-62 16.1 µM | UACC-257 13.2 µM | OVCAR-5 18.7 µM | LOX IMVI 12.7 µM | SF-539 19 µM | T47D 23.1 µM | UACC-62 14.4 µM | BT-549 5.53 µM | OVCAR-4 18.1 µM | HT-29 14.5 µM | A498 14 µM | EKVX 12.6 µM | U-251 13.9 µM | PC-3 14.3 µM | SK-MEL-28 14.3 µM | NCI-H23 19.6 µM | NCI-H522 13.1 µM

CCC/C(Cl)=N\OC(=O)Nc1ccc(Br)cc1
inactive: Hs-578T 21.1 µM | UO-31 13 µM | HOP-62 20.9 µM | UACC-257 13.5 µM | OVCAR-5 13.9 µM | SNB-19 29.5 µM | LOX IMVI 3.89 µM | SF-539 17.5 µM | T47D 7.24 µM | UACC-62 18.9 µM | BT-549 17.7 µM | OVCAR-4 21.5 µM | HT-29 17.7 µM | A498 16.9 µM | EKVX 14.6 µM | U-251 16.4 µM | PC-3 14.7 µM | SK-MEL-28 18.2 µM | NCI-H23 17.4 µM | NCI-H522 1.75 µM

O=C1CC(C(O)C(O)C(O)CO)CC(=O)N1 (centres undefined)
inactive: Hs-578T > 100 µM | UO-31 > 100 µM | HOP-62 > 100 µM | UACC-257 > 100 µM | OVCAR-5 > 100 µM | SNB-19 > 100 µM | LOX IMVI > 100 µM | SF-539 > 100 µM | T47D > 100 µM | BT-549 74 µM | OVCAR-4 > 100 µM | HT-29 > 100 µM | A498 > 100 µM | EKVX > 100 µM | U-251 > 100 µM | PC-3 > 100 µM | SK-MEL-28 > 100 µM | NCI-H23 > 100 µM | NCI-H522 > 100 µM

O=C1C(C(c2ccc([N+](=O)[O-])cc2)N2CCOCC2)=C(O)C(c2ccccc2)N1c1ccccc1 (centres undefined)
inactive: Hs-578T > 10 µM | UO-31 > 10 µM | HOP-62 > 10 µM | UACC-257 > 10 µM | OVCAR-5 > 10 µM | SNB-19 > 10 µM | LOX IMVI > 10 µM | SF-539 > 10 µM | T47D > 10 µM | UACC-62 > 10 µM | BT-549 > 10 µM | OVCAR-4 > 10 µM | HT-29 > 10 µM | A498 > 10 µM | EKVX > 10 µM | U-251 > 10 µM | PC-3 > 10 µM | SK-MEL-28 > 10 µM | NCI-H23 > 10 µM | NCI-H522 > 10 µM

Cc1ccc(-c2cc(O)c3nc4ccccc4n3c2)cc1
inactive: Hs-578T > 100 µM | UO-31 > 100 µM | HOP-62 > 100 µM | UACC-257 > 100 µM | SNB-19 > 100 µM | LOX IMVI 75 µM | SF-539 > 100 µM | T47D > 100 µM | UACC-62 > 100 µM | BT-549 > 100 µM | OVCAR-4 > 100 µM | HT-29 > 100 µM | A498 > 100 µM | EKVX > 100 µM | U-251 > 100 µM | PC-3 > 100 µM | SK-MEL-28 > 100 µM | NCI-H23 > 100 µM | NCI-H522 7.38 µM

C[C@]12CC[C@H](O)CC1=CC[C@@H]1C2CC[C@]2(C)c3nn(-c4ccc(F)cc4)nc3CC12 (some centres undefined)
inactive: Hs-578T 39.3 µM | UO-31 81.1 µM | HOP-62 80.7 µM | UACC-257 46.8 µM | OVCAR-5 67.1 µM | SNB-19 73.3 µM | SF-539 18.2 µM | T47D 24.4 µM | UACC-62 43.7 µM | BT-549 63.4 µM | OVCAR-4 16.6 µM | HT-29 22.4 µM | A498 60.1 µM | EKVX > 100 µM | U-251 95.5 µM | PC-3 52.2 µM | SK-MEL-28 > 100 µM | NCI-H23 63.4 µM | NCI-H522 58.3 µM

COC(=O)C1(Cc2ccccc2)Cc2cc3c(cc2C1O)CCC3 (centres undefined)
inactive: Hs-578T 13.8 µM | UO-31 > 10 µM | HOP-62 19.3 µM | UACC-257 18.2 µM | OVCAR-5 13.6 µM | LOX IMVI 19.1 µM | SF-539 18.2 µM | T47D 28.5 µM | UACC-62 16.9 µM | BT-549 15.5 µM | OVCAR-4 15 µM | HT-29 13.8 µM | A498 19.7 µM | EKVX 22.9 µM | PC-3 19 µM | SK-MEL-28 16.1 µM | NCI-H23 15 µM | NCI-H522 17.4 µM
